{
  "source": "paper PMC5601486",
  "about": "“Identification of 4-phenylquinolin-2(1H)-one as a specific allosteric inhibitor of Akt” (Scientific Reports, 2017)",
  "key": {"mTORC2": {"tested_on": "mTORC2", "experiment": "Western blot of mTOR S2481 phosphorylation", "format": "cell-based, Mouse", "settings": "all concentrations tested including 80 µM", "description": "(§1) Neuro 2A cells were seeded in 12-well plates in DMEM containing 5% FBS for 24 hr.\n(§2) After overnight serum starvation (in 0% FBS DMEM), cells were incubated for 30 min at 37 °C with G7 or LY294002 or Torin 1 (Sigma Aldrich) at various concentrations, or DMSO control. IGF-1 was added to each well at a final concentration of 100 ng/mL. After 30-min incubation cells were washed with cold PBS and lysed with 50 µL lysis buffer containing 1% Triton X-100 and protease/phosphatase inhibitors (Cell Signaling Technology) or RIPA buffer (Santa Cruz Biotech). Samples were electrophoresed in 4–12% Bis-Tris gels (Life Technologies) at 150 V using MOPS SDS running buffer. Proteins were transferred electrophoretically to a PVDF or nitrocellulose membrane. For detection of cleaved […]\n(§3) caspase 3 a Trans-Blot Turbo Transfer System (Bio-Rad, 25 V for 25 min) with PVDF membrane were used. […]\n(§4) anti- GAPDH (14C10) antibody (#2118) (all antibodies were from Cell Signaling Technology unless indicated, 1:1000 dilution was used) at 4°C overnight, washed three times with TBS-T, then incubated with peroxidase-conjugated secondary antibody (Sigma-Aldrich) for 1 hr at room temperature. […] Band intensity was quantitated using Kodak 1D imaging analysis software. […]"}, "PKC": {"tested_on": "PKC", "experiment": "Western blot of PKC phosphorylation", "format": "cell-based, Mouse", "settings": "Neuro 2A cells", "description": "as §1, §2, §3, §4"}, "Akt": {"tested_on": "T1, Akt", "T1 construct": "purchased Millipore 14-279", "experiment": "In vitro phosphorylation of Akt S473 by MAPKAP kinase 2", "format": "biochemical", "settings": "inactive Akt, PE/PC/PS/PIP3 vesicles"}, "PRP4": {"tested_on": "T2, PRP4", "T2 construct": "purchased DiscoveRx KINOMEscan", "experiment": "KINOMEscan", "format": "binding, human", "settings": "50000 nM"}, "GRK3": {"tested_on": "GRK3", "experiment": "KINOMEscan", "settings": "50000 nM", "experimental": "KINOMEscan™ selectivity screen\n(§5) Briefly, Kinase-tagged T7 phage strains were grown in parallel in an E. coli host derived from the BL21 strain. E. coli were grown to log-phase and infected with T7 phage from a frozen stock and incubated with shaking at 32°C until lysis (90-150 minutes). The kinases were produced in HEK-293 cells and subsequently tagged with DNA for qPCR detection. Streptavidin-coated magnetic beads were treated with biotinylated small molecule ligands to generate affinity resins for kinase\n(§6) inhibitor or DMSO control was performed in polypropylene 384-well plates for 1 hr at room temperature. After wash with PBS buffer containing 0.05% Tween 20, the beads were incubated in elution buffer (PBS containing 0.05 % Tween 20 and 0.5 μM non-biotinylated affinity ligand) for 30 minutes at room temperature. The kinase concentration in the eluates was measured by qPCR."}, "PRKG2": {"tested_on": "PRKG2", "experiment": "KINOMEscan", "settings": "50000 nM", "experimental": "KINOMEscan™ selectivity screen\n(§7) The assay was perfor med at DiscoveRx Corporation according the methods published previously5. Briefly, Kinase-tagged T7 phage strains were grown in parallel in an E. coli host derived from the BL21 strain. E. coli were grown to log-phase and infected with T7 phage from a frozen stock and incubated with shaking at 32°C until lysis (90-150 minutes). The kinases were produced in HEK-293 cells and subsequently tagged with DNA for qPCR detection. Streptavidin-coated magnetic beads were treated with biotinylated small molecule ligands to generate affinity resins for kinase\nas §6"}, "TGFBR1": {"tested_on": "TGFBR1", "experiment": "KINOMEscan", "settings": "50000 nM", "experimental": "KINOMEscan™ selectivity screen\nas §7, §6"}, "WEE1": {"tested_on": "WEE1", "experiment": "KINOMEscan", "settings": "50000 nM", "experimental": "KINOMEscan™ selectivity screen\nas §7, §6"}, "ZAP70": {"tested_on": "ZAP70", "experiment": "KINOMEscan", "settings": "50000 nM", "experimental": "KINOMEscan™ selectivity screen\nas §5, §6"}, "TNK2": {"tested_on": "TNK2", "experiment": "KINOMEscan", "settings": "50000 nM", "experimental": "KINOMEscan™ selectivity screen\nas §7, §6"}, "DCAMKL2": {"tested_on": "DCAMKL2", "experiment": "KINOMEscan", "settings": "50000 nM", "experimental": "KINOMEscan™ selectivity screen\nas §7, §6"}, "MELK": {"tested_on": "MELK", "experiment": "KINOMEscan", "settings": "50000 nM", "experimental": "KINOMEscan™ selectivity screen\nas §7, §6"}, "EPHA8": {"tested_on": "EPHA8", "experiment": "KINOMEscan", "settings": "50000 nM", "experimental": "KINOMEscan™ selectivity screen\nas §7, §6"}, "NIK": {"tested_on": "NIK", "experiment": "KINOMEscan", "settings": "50000 nM", "experimental": "KINOMEscan™ selectivity screen\nBriefly, Kinase-tagged T7 phage strains were grown in parallel in an E. coli host derived from the BL21 strain. E. coli were grown to log-phase and infected with T7 phage from a frozen stock and incubated with shaking at 32°C until lysis (90-150 minutes). The kinases were produced in HEK-293 cells and subsequently tagged with DNA for qPCR detection.\nAfter wash with PBS buffer containing 0.05% Tween 20, the beads were incubated in elution buffer (PBS containing 0.05 % Tween 20 and 0.5 μM non-biotinylated affinity ligand) for 30 minutes at room temperature. The kinase concentration in the eluates was measured by qPCR."}, "TXK": {"tested_on": "TXK", "experiment": "KINOMEscan", "settings": "50000 nM", "experimental": "KINOMEscan™ selectivity screen\nas §7, §6"}, "NEK11": {"tested_on": "NEK11", "experiment": "KINOMEscan", "settings": "50000 nM", "experimental": "KINOMEscan™ selectivity screen\nas §5, §6"}, "EPHA1": {"tested_on": "EPHA1", "experiment": "KINOMEscan", "settings": "50000 nM", "experimental": "KINOMEscan™ selectivity screen\nas §7, §6"}, "CDK3": {"tested_on": "CDK3", "experiment": "KINOMEscan", "settings": "50000 nM", "experimental": "KINOMEscan™ selectivity screen\nas §5, §6"}, "MARK4": {"tested_on": "MARK4", "experiment": "KINOMEscan", "settings": "50000 nM", "experimental": "KINOMEscan™ selectivity screen\nas §7, §6"}, "DCAMKL1": {"tested_on": "DCAMKL1", "experiment": "KINOMEscan", "settings": "50000 nM", "experimental": "KINOMEscan™ selectivity screen\nas §7, §6"}, "PKAC-alpha": {"tested_on": "PKAC-alpha", "experiment": "KINOMEscan", "settings": "50000 nM", "experimental": "KINOMEscan™ selectivity screen\nas §5, §6"}, "BMPR2": {"tested_on": "BMPR2", "experiment": "KINOMEscan", "settings": "50000 nM", "experimental": "KINOMEscan™ selectivity screen\nas §7, §6"}, "RIPK2": {"tested_on": "RIPK2", "experiment": "KINOMEscan", "settings": "50000 nM", "experimental": "KINOMEscan™ selectivity screen\nas §7, §6"}, "NEK7": {"tested_on": "NEK7", "experiment": "KINOMEscan", "settings": "50000 nM", "experimental": "KINOMEscan™ selectivity screen\nas §7, §6"}, "PLK2": {"tested_on": "PLK2", "experiment": "KINOMEscan", "settings": "50000 nM", "experimental": "KINOMEscan™ selectivity screen\nas §5, §6"}, "PRKX": {"tested_on": "PRKX", "experiment": "KINOMEscan", "settings": "50000 nM", "experimental": "KINOMEscan™ selectivity screen\nas §7, §6"}, "CSNK1G2": {"tested_on": "CSNK1G2", "experiment": "KINOMEscan", "settings": "50000 nM", "experimental": "KINOMEscan™ selectivity screen\nThe kinases were produced in HEK-293 cells and subsequently tagged with DNA for qPCR detection. Streptavidin-coated magnetic beads were treated with biotinylated small molecule ligands to generate affinity resins for kinase\nas §6"}, "DAPK3": {"tested_on": "DAPK3", "experiment": "KINOMEscan", "settings": "50000 nM", "experimental": "KINOMEscan™ selectivity screen\nas §5, §6"}, "SGK": {"tested_on": "SGK", "experiment": "KINOMEscan", "settings": "50000 nM", "experimental": "KINOMEscan™ selectivity screen\nas §7, §6"}, "TRKA": {"tested_on": "TRKA", "experiment": "KINOMEscan", "settings": "50000 nM", "experimental": "KINOMEscan™ selectivity screen\nas §7, §6"}, "HIPK2": {"tested_on": "HIPK2", "experiment": "KINOMEscan", "settings": "50000 nM", "experimental": "KINOMEscan™ selectivity screen\nas §7, §6"}, "MET(Y1235D)": {"tested_on": "MET(Y1235D)", "experiment": "KINOMEscan", "settings": "50000 nM", "experimental": "KINOMEscan™ selectivity screen\nas §5, §6"}, "CAMK1B": {"tested_on": "CAMK1B", "experiment": "KINOMEscan", "settings": "50000 nM", "experimental": "KINOMEscan™ selectivity screen\nThe assay was perfor med at DiscoveRx Corporation according the methods published previously5. […] The kinases were produced in HEK-293 cells and subsequently tagged with DNA for qPCR detection. Streptavidin-coated magnetic beads were treated with biotinylated small molecule ligands to generate affinity resins for kinase\nas §6"}, "AURKA": {"tested_on": "AURKA", "experiment": "KINOMEscan", "settings": "50000 nM", "experimental": "KINOMEscan™ selectivity screen\nas §7, §6"}, "[1]": {"tested_on": "RSK1(Kin.Dom.2-C-terminal)", "experiment": "KINOMEscan", "settings": "50000 nM", "experimental": "KINOMEscan™ selectivity screen\nas §7, §6"}, "VPS34": {"tested_on": "VPS34", "experiment": "KINOMEscan", "settings": "50000 nM", "experimental": "KINOMEscan™ selectivity screen\nas §7, §6"}, "GSK3A": {"tested_on": "GSK3A", "experiment": "KINOMEscan", "settings": "50000 nM", "experimental": "KINOMEscan™ selectivity screen\nas §5, §6"}},
  "data": [
    {"compound": "Oc1cc(-c2ccccc2)c2ccccc2n1", "note": "[G7, 4-phenylquinolin-2(1H)-one]", "values": [
      {"measurement": "phosphorylation of mTORC2 at S2481", "setting": "mTORC2", "value": "did not inhibit"},
      {"measurement": "phosphorylation (activation status) of PKC", "setting": "PKC", "value": "did not alter"},
      {"measurement": "in vitro phosphorylation of S473 by MAPKAP kinase 2", "setting": "Akt", "value": "impaired"},
      {"measurement": "Percent Control", "setting": "PRP4", "value": 79, "unit": "%"},
      {"measurement": "Percent Control", "setting": "GRK3", "value": 100, "unit": "%"},
      {"measurement": "Percent Control", "setting": "PRKG2", "value": 100, "unit": "%"},
      {"measurement": "Percent Control", "setting": "TGFBR1", "value": 100, "unit": "%"},
      {"measurement": "Percent Control", "setting": "WEE1", "value": 100, "unit": "%"},
      {"measurement": "Percent Control", "setting": "ZAP70", "value": 100, "unit": "%"},
      {"measurement": "Percent Control", "setting": "TNK2", "value": 99, "unit": "%"},
      {"measurement": "Percent Control", "setting": "DCAMKL2", "value": 97, "unit": "%"},
      {"measurement": "Percent Control", "setting": "MELK", "value": 97, "unit": "%"},
      {"measurement": "Percent Control", "setting": "EPHA8", "value": 93, "unit": "%"},
      {"measurement": "Percent Control", "setting": "NIK", "value": 93, "unit": "%"},
      {"measurement": "Percent Control", "setting": "TXK", "value": 93, "unit": "%"},
      {"measurement": "Percent Control", "setting": "NEK11", "value": 90, "unit": "%"},
      {"measurement": "Percent Control", "setting": "EPHA1", "value": 89, "unit": "%"},
      {"measurement": "Percent Control", "setting": "CDK3", "value": 88, "unit": "%"},
      {"measurement": "Percent Control", "setting": "MARK4", "value": 88, "unit": "%"},
      {"measurement": "Percent Control", "setting": "DCAMKL1", "value": 87, "unit": "%"},
      {"measurement": "Percent Control", "setting": "PKAC-alpha", "value": 87, "unit": "%"},
      {"measurement": "Percent Control", "setting": "BMPR2", "value": 82, "unit": "%"},
      {"measurement": "Percent Control", "setting": "RIPK2", "value": 82, "unit": "%"},
      {"measurement": "Percent Control", "setting": "NEK7", "value": 78, "unit": "%"},
      {"measurement": "Percent Control", "setting": "PLK2", "value": 78, "unit": "%"},
      {"measurement": "Percent Control", "setting": "PRKX", "value": 76, "unit": "%"},
      {"measurement": "Percent Control", "setting": "CSNK1G2", "value": 74, "unit": "%"},
      {"measurement": "Percent Control", "setting": "DAPK3", "value": 74, "unit": "%"},
      {"measurement": "Percent Control", "setting": "SGK", "value": 66, "unit": "%"},
      {"measurement": "Percent Control", "setting": "TRKA", "value": 65, "unit": "%"},
      {"measurement": "Percent Control", "setting": "HIPK2", "value": 63, "unit": "%"},
      {"measurement": "Percent Control", "setting": "MET(Y1235D)", "value": 59, "unit": "%"},
      {"measurement": "Percent Control", "setting": "CAMK1B", "value": 52, "unit": "%"},
      {"measurement": "Percent Control", "setting": "AURKA", "value": 50, "unit": "%"},
      {"measurement": "Percent Control", "setting": "[1]", "value": 39, "unit": "%"},
      {"measurement": "Percent Control", "setting": "VPS34", "value": 35, "unit": "%"},
      {"measurement": "Percent Control", "setting": "GSK3A", "value": 22, "unit": "%"}
    ]}
  ]
}
